Assay results reported in ChEMBL document CHEMBL1201862, “PubChem BioAssay data set” (2004).
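Interpolation was linear, between the two tested concentrations surrounding the appropriate level; five concentrations were tested over 48 hours in 96-well plates. GI50: concentration for 50% inhibition of growth.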 Calls of active or inactive are those of the source. Cut-off read from the data, not from the text of the source: active = GI50 up to about 1.1 µM and inactive = higher.

What was measured:
Experiment in all cases: NCI tumour cell line growth inhibition, 48 h
CAKI-1 = system: CAKI-1
CCRF-CEM = system: CCRF-CEM
COLO 205 = system: COLO 205
EKVX = system: EKVX
HCC 2998 = system: HCC 2998
HCT-116 = system: HCT-116
IGROV-1 = system: IGROV-1
MDA-MB-231 = system: MDA-MB-231
MDA-MB-435 = system: MDA-MB-435
Malme-3M = system: Malme-3M
NCI-H226 = system: NCI-H226
NCI-H23 = system: NCI-H23
PC-3 = system: PC-3
RPMI-8226 = system: RPMI-8226
RXF 393 = system: RXF 393
SF-268 = system: SF-268
SK-MEL-5 = system: SK-MEL-5
SNB-19 = system: SNB-19
SR = system: SR
T47D = system: T47D

SMILES	GI50 (CAKI-1)	GI50 (CCRF-CEM)	GI50 (COLO 205)	GI50 (EKVX)	GI50 (HCC 2998)	GI50 (HCT-116)	GI50 (IGROV-1)	GI50 (MDA-MB-231)	GI50 (MDA-MB-435)	GI50 (Malme-3M)	GI50 (NCI-H226)	GI50 (NCI-H23)	GI50 (PC-3)	GI50 (RPMI-8226)	GI50 (RXF 393)	GI50 (SF-268)	GI50 (SK-MEL-5)	GI50 (SNB-19)	GI50 (SR)	GI50 (T47D)
CSc1ccc(-c2cc(-c3nc4ccccc4[nH]3)nc(N)c2C#N)cc1	18.3 µM (inactive)	13.3 µM (inactive)	15.9 µM (inactive)	20.1 µM (inactive)	17.1 µM (inactive)	17.9 µM (inactive)	8.67 µM (inactive)	17.1 µM (inactive)	17.7 µM (inactive)	19.4 µM (inactive)	21.3 µM (inactive)	24.9 µM (inactive)	20.7 µM (inactive)	21.4 µM (inactive)	2.58 µM (inactive)	17.3 µM (inactive)	13.3 µM (inactive)	25.2 µM (inactive)	13.1 µM (inactive)	13.5 µM (inactive)
CSC1=C(C#N)C(=S)N=C(N)C1C(=O)Nc1ccc(C)cc1 (stereo not given)	> 100 µM (inactive)	> 100 µM (inactive)	> 100 µM (inactive)	> 100 µM (inactive)	> 100 µM (inactive)	81.5 µM (inactive)	> 100 µM (inactive)	> 100 µM (inactive)	> 100 µM (inactive)	> 100 µM (inactive)	60.1 µM (inactive)	> 100 µM (inactive)	> 100 µM (inactive)	> 100 µM (inactive)	> 100 µM (inactive)	> 100 µM (inactive)	> 100 µM (inactive)	> 100 µM (inactive)	> 100 µM (inactive)	> 100 µM (inactive)
O=[N+]([O-])/C(C(Cl)=C(Cl)Cl)=C(/Br)SCc1ccccc1	2 µM (inactive)	0.277 µM (active)	1.6 µM (inactive)	5.46 µM (inactive)	7.21 µM (inactive)	1.73 µM (inactive)	3.71 µM (inactive)	2.72 µM (inactive)	1.47 µM (inactive)	2.88 µM (inactive)	6.07 µM (inactive)	3.22 µM (inactive)	2.79 µM (inactive)	0.656 µM (active)	1.79 µM (inactive)	2.52 µM (inactive)	2.96 µM (inactive)	10.4 µM (inactive)	0.375 µM (active)	2.88 µM (inactive)
CSC1NNC2(C(=O)N1)c1ccccc1-c1ccccc12 (stereo not given)	> 10 µM (inactive)	> 10 µM (inactive)	> 10 µM (inactive)	8.32 µM (inactive)	> 10 µM (inactive)	> 10 µM (inactive)	> 10 µM (inactive)	> 10 µM (inactive)	> 10 µM (inactive)	> 10 µM (inactive)	> 10 µM (inactive)	> 10 µM (inactive)	> 10 µM (inactive)	> 10 µM (inactive)	> 10 µM (inactive)	> 10 µM (inactive)	> 10 µM (inactive)	> 10 µM (inactive)	> 10 µM (inactive)	5.53 µM (inactive)
O=c1c2cc(O)c(O)cc2oc2cc(O)c(C3OC(CO)C(O)C(O)C3O)c(O)c12 (stereo not given)	> 100 µM (inactive)	> 100 µM (inactive)	> 100 µM (inactive)	> 100 µM (inactive)	> 100 µM (inactive)	> 100 µM (inactive)	> 100 µM (inactive)	> 100 µM (inactive)	> 100 µM (inactive)	> 100 µM (inactive)	> 100 µM (inactive)	> 100 µM (inactive)	> 100 µM (inactive)	> 100 µM (inactive)	> 100 µM (inactive)	> 100 µM (inactive)	> 100 µM (inactive)	> 100 µM (inactive)	> 100 µM (inactive)	> 100 µM (inactive)
